Assay results reported in US20090197917A1, “USE OF RIMONABANT FOR THE PREPARATION OF MEDICAMENTS USEFUL IN THE PREVENTION AND TREATMENT OF TYPE 2 DIABETES” (SANOFI-AVENTIS, priority 2005, published 2009).

Assays:
[1] = tested on: obese subjects with type 2 diabetes; assay: Rio-Diabetes clinical study, 12 months, rimonabant 20 mg versus placebo; format: in vivo, human
Description: The Rio-Diabetes clinical study, carried out over 12 months in 1045 obese subjects with type 2 diabetes treated by monotherapy (metformin or sulfonylureas) compares the effect of rimonabant at the dose of 20 mg versus a placebo product in weight reduction; the improvement of glycosylated haemoglobin (HbAlc), of glycemia, of insulinaemia and lipid parameters. A low-calorie diet (deficit of 600 Kcal/day) is prescribed for all the patients and is introduced 4 weeks before the start of the treatment period.
The insulin resistance is evaluated by the HOMA (Homeostasis Model Assessment) test described by Matthew D. R. et al. in Diabetologica, 1985, 28, 412-419.

fa/fa obese Zucker rats = assay: Long-term (12 months) treatment of obese Zucker rats: protection of the pancreas; format: in vivo, rat
From the text: The effect of a long-term (12 months) treatment with rimonabant was studied in Zucker rats with established obesity.
The fa/fa strain of obese Zucker rats is characterized by hyperphagia, obesity, dyslipidaemia and type 2 diabetes.
After 12 months, the fa/fa obese Zucker rats treated with the vehicle show a marked hypertrophy of the pancreas (+38%, p<0.05).

[2] = logistic regression analysis with weight as co-variable
[3] = rimonabant 20 mg, 12 months, p<0.001

## Cc1c(C(=O)NN2CCCCC2)nn(-c2ccc(Cl)cc2Cl)c1-c1ccc(Cl)cc1 [rimonabant, N-piperidino-5-(4-chlorophenyl)-1-(2,4-dichlorophenyl)-4-methylpyrazole-3-carboxamide]
[1]; [2]
  effect independent of the weight loss for the improvement in HDL-c: about 55%
  effect independent of the weight loss for the improvement in HbAlc: about 55%
  effect independent of the weight loss for the triglycerides: about 35%
[1]; rimonabant 20 mg
  time after which the loss of weight appears stabilized: 6 months
[1]; rimonabant 20 mg group, 12 months, p<0.001 vs placebo
  decrease in glycemia on an empty stomach: 0.64 ± 1.96 mmol/L
[1]; rimonabant 20 mg, 12 months
  improvement in insulin resistance evaluated by the HOMA test: −0.5±5.7%
[1]; [3]
  decrease of triglycerides compared with the placebo group: more than 16.4±3.3%
  difference in the reduction of the level of HbAlc compared with the placebo: 0.7±0.1%
  greater weight loss than that observed in the placebo group: 4.2 ± 0.4 kg
  increase in the HDL-c level compared with the placebo: greater than 8.4±1.2%
[1]; rimonabant 20 mg, 12 months, p=0.247 vs placebo
  reduction of insulinaemia on an empty stomach: 0.7±9.9 μIU/mL
[1]; rimonabant 20 mg, p=0.020
  reduction in the systolic blood pressure: 0.8±12.8 mmHg
[1]; rimonabant 20 mg, p=0.060
  reduction in the diastolic blood pressure: 1.9±8.2 mmHg
[1]; rimonabant 20 mg, then maintained up to 12 months
  time at which the reduction of HbAlc is maximum: 9 months
[1]; rimonabant combined with a sulfonylurea, p<0.001
  HbAlc difference compared with the placebo: 0.7±0.1%
[1]; rimonabant combined with metformin, p<0.001
  HbAlc difference compared with the placebo: 0.7±0.1%
[1]; rimonabant-metformin combination, p<0.001
  difference in weight loss compared with the placebo group: 4.3 ± 0.4 kg
[1]; rimonabant-sulfonylurea combination, p<0.001
  difference in weight loss compared with the placebo group: 3.1 ± 0.5 kg
fa/fa obese Zucker rats; 3 mg/kg/day, vehicle +38%
  hypertrophy of the pancreas: +17%
fa/fa obese Zucker rats; 10 mg/kg/day, p<0.05, vehicle +38%
  hypertrophy of the pancreas: +1%
